Results from article PMC6054424, “Expression and purification of a functional heteromeric GABAA receptor for structural studies” (PLoS ONE, 2018).

B1: GluClα-EGFP (α subunit of the glutamate-gated chloride channel from C. elegans, EGFP in the M3/M4 loop) (receptor, UniProt G5EBR3 21-461, looked up)
chain: QQARTKSQDIFEDDNDNGTTTLESLARLTSPIHIPIEQPQTSDSKILAHLFTSGYDFRVRPPTDNGGPVVVSVNMLLRTISKIDVVNMEYSAQLTLRESWIDKRLSYGVKGDGQPDFVILTVGHQIWMPDTFFPNEKQAYKHTIDKPNVLIRIHNDGTVLYSVRISLVLSCPMYLQYYPMDVQQCSIDLASYAYTTKDIEYLWKEHSPLQLKVGLSSSLPSFQLTNTSTTYCTSVTNTGIYSCLRTTIQLKREFSFYLLQLYIPSCMLVIVSWVSFWFDRTAIPARVTLGVTTLLTMTAQSAGINSQLPPVSYIKAIDVWIGACMTFIFCALLEFALVNHIANKQGVERKARTEREKAEIPLLQNLHNDVPTKVFNQEEKVRTVPLNRRQMNSFLNLLETKTEWNDISKRVDLISRALFPVLFFVFNILYWSRFGQQNVLF
notes: glutamate-gated chloride channel α subunit (GluClα), C. elegans; source: Xenopus oocytes injected with synthetic mRNA, in C12M-solubilised oocytes; not shown: EGFP, internal (M3/M4 loop)

Columns and labels:
[1] = target: T1, GABAA receptor α1/β1 (α1 subunit) (Rattus norvegicus, UniProt P15431+P62813, P15431:DEL334-439/P15431:INS334GT/P62813:DEL341-408/P62813:INS341T); experiment: radioligand saturation binding by scintillation proximity assay on purified receptor in L-MNG
T1 construct: gene Gabra1; purified α1/β1 receptor with M3/M4 loop truncations (α1-LT: Y341-P408 replaced with Thr; β1-LT: K334-K439 replaced with Gly-Thr), C-terminal His8 tag; with GABAA receptor β1 subunit (Gabrb1, P15431)
T1 sequence (P62813 with tags, fused parts or gaps DEL341-408/INS341T): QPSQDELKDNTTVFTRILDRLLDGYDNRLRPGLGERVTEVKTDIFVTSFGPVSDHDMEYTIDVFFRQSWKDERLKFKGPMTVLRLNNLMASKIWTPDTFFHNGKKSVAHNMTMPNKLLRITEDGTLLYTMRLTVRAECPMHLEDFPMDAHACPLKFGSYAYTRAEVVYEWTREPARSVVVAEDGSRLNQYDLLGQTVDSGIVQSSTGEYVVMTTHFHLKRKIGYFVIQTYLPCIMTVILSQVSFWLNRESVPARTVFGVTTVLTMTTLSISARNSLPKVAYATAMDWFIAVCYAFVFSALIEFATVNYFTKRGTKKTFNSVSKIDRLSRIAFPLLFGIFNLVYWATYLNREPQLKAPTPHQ
T1 sequence (P15431 with tags, fused parts or gaps DEL334-439/INS334GT): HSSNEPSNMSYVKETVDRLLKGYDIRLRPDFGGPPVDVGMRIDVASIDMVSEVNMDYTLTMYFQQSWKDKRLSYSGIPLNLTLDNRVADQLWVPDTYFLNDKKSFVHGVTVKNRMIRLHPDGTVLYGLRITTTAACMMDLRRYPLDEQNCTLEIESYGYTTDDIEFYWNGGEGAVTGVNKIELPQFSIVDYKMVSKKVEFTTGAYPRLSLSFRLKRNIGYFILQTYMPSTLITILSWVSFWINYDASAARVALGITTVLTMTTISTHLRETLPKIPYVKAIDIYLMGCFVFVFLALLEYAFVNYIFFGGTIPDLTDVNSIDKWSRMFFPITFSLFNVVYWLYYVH

[2] = target: the molecule itself; experiment: SEC; fluorescence detection SEC (FSEC) of 8-12 oocytes solubilised with 40 mM C12M; Superose6 10/300 GL in TBS pH 8.0, 1 mM C12M, 1 mM EDTA; GFP fluorescence of the tagged subunit followed; ferritin and EGFP as standards

Molecule	Kd [1]	stoichiometry N [2]
NCc1cc(=O)[nH]o1 [muscimol]	24 ± 1.1 nM	–
B1	–	5
